Values belong to the molecule of their own block, whether it stands above or below them.
Molecular target: T1, human macrophage elastase (HME/hMMP-12) (Homo sapiens, UniProt P39900)
T1 construct: 0.5 nM HME; purchased R&D Systems 917-MP
Experiment: In vitro HME inhibition test (standard or high-sensitivity)
Assay type: biochemical
Conditions: in some cases mean values
Protocol: The potency of the compounds according to the invention with respect to HME (MMP-12) is determined in an in vitro inhibition test. The HME-mediated amidolytic cleavage of a suitable peptide substrate leads to an increase in fluorescent light therein. The signal intensity of the fluorescent light is directly proportional to the enzyme activity. The active concentration of a test compound at which half the enzyme is inhibited (50% signal intensity of the fluorescent light) is reported as the IC50 value.
In a 384 hole microtiter plate, in a total test volume of 41 the test buffer (0.1 M HEPES pH 7.4, 0.15 M NaCl, 0.03 M CaCl2, 0.004 mM ZnCl2, 0.02 M EDTA, 0.005% Brij®), the enzyme (0.5 nM HME; from R&D Systems, 917-MP, autocatalytic activation according to the manufacturer's instructions) and the intramolecularly quenched substrate [5 μM Mca-Pro-Leu-Gly-Leu-Glu-Glu-Ala-Dap(Dnp)-NH2; Bachem, M-2670] are incubated in the absence and presence of the test substance (as a solution in DMSO) at 37° C. for two hours. The fluorescence intensity of the test mixtures is measured (excitation […], emission 393 nm). The IC50 values are ascertained by plotting the fluorescent light intensity against the active ingredient concentration.
In this case, an enzyme concentration ten times lower is used (final concentration, for example, 0.05 nM) in order to achieve an elevated test sensitivity. The incubation period chosen for the test is correspondingly longer (for example 16 hours).

T1 sequence (P39900 106-470): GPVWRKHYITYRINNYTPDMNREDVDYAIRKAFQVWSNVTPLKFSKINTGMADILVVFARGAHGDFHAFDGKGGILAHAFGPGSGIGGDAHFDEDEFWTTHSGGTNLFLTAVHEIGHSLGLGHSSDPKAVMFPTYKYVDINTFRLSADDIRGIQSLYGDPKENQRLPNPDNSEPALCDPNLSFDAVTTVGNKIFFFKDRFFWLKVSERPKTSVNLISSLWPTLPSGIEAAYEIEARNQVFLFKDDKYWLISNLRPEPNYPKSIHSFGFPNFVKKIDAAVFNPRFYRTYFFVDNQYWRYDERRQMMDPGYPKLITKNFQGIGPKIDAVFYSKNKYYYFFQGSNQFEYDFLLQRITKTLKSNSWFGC

SMILES: O=C(O)[C@@H]1[C@@H](Cn2nnc3ccc(C(F)(F)F)cc3c2=O)CC[C@H]1C(=O)c1ccc(OCC2CCC2)cc1 (single isomer, unassigned) [Example 48, (−)-(1RS,2RS,5SR)-2-[4-(Cyclobutylmethoxy)benzoyl]-5-{[4-oxo-6-(trifluoromethyl)-1,2,3-benzotriazin-3(4H)-yl]methyl}cyclopentanecarboxylic acid]
- IC50: 290 nM

SMILES: O=C(O)[C@@H]1[C@@H](Cn2nnc3ccc(C(F)(F)F)cc3c2=O)CC[C@H]1C(=O)c1ccc(OCCC2CCCCC2)cc1 (single isomer, unassigned) [Example 51, (−)-(1RS,2RS,5SR)-2-[4-(2-Cyclohexylethoxy)benzoyl]-5-{[4-oxo-6-(trifluoromethyl)-1,2,3-benzotriazin-3(4H)-yl]methyl}cyclopentanecarboxylic acid]
- IC50: 30 nM

SMILES: O=C(O)[C@@H]1[C@@H](Cn2nnc3ccc(C(F)(F)F)cc3c2=O)CC[C@H]1C(=O)c1ccc(OCCC2CCCC2)cc1 (single isomer, unassigned) [Example 54, (−)-(1RS,2RS,5SR)-2-[4-(2-Cyclopentylethoxy)benzoyl]-5-{[4-oxo-6-(trifluoromethyl)-1,2,3-benzotriazin-3(4H)-yl]methyl}cyclopentanecarboxylic acid]
- IC50: 22 nM

SMILES: CC(C)CCOc1ccc(C(=O)[C@@H]2CC[C@H](Cn3nnc4ccc(C(F)(F)F)cc4c3=O)[C@H]2C(=O)O)cc1 (single isomer, unassigned) [Example 61, (+)-(1RS,2RS,5SR)-2-[4-(3-Methylbutoxy)benzoyl]-5-{[4-oxo-6-(trifluoromethyl)-1,2,3-benzotriazin-3(4H)-yl]methyl}cyclopentanecarboxylic acid]
- IC50: 0.032 nM

SMILES: CC(C)CCOc1ccc(C(=O)[C@@H]2CC[C@H](Cn3nnc4ccc(C(F)(F)F)cc4c3=O)[C@H]2C(=O)O)cc1 (single isomer, unassigned) [Example 62, (−)-(1RS,2RS,5SR)-2-[4-(3-Methylbutoxy)benzoyl]-5-{[4-oxo-6-(trifluoromethyl)-1,2,3-benzotriazin-3(4H)-yl]methyl}cyclopentanecarboxylic acid]
- IC50: 4.7 nM

SMILES: CCCCOc1ccc(C(=O)[C@@H]2CC[C@H](Cn3nnc4ccc(C(F)(F)F)cc4c3=O)[C@H]2C(=O)O)cc1 (single isomer, unassigned) [Example 68, (−)-(1RS,2RS,5SR)-2-(4-Butoxybenzoyl)-5-{[4-oxo-6-(trifluoromethyl)-1,2,3-benzotriazin-3(4H)-yl]methyl}cyclopentanecarboxylic acid]
- IC50: 2.1 nM

SMILES: O=C(O)[C@@H]1[C@@H](Cn2nnc3ccc(C(F)(F)F)cc3c2=O)CC[C@H]1C(=O)c1ccc(SCc2ccc(Cl)c(Cl)c2)cc1 (single isomer, unassigned) [Example 81, (−)-(1RS,2RS,5SR)-2-{4-[(3,4-Dichlorobenzyl)sulphanyl]benzoyl}-5-{[4-oxo-6-(trifluoromethyl)-1,2,3-benzotriazin-3(4H)-yl]methyl}cyclopentanecarboxylic acid]
- IC50: 25 nM

SMILES: CCCCCSc1ccc(C(=O)[C@@H]2CC[C@H](Cn3nnc4ccc(C(F)(F)F)cc4c3=O)[C@H]2C(=O)O)cc1 (single isomer, unassigned) [Example 89, (+)-(1RS,2SR,5RS)-2-{[4-Oxo-6-(trifluoromethyl)-1,2,3-benzotriazin-3(4H)-yl]methyl}-5-[4-(pentylsulphanyl)benzoyl]cyclopentanecarboxylic acid]
- IC50: 0.045 nM

SMILES: CCCCCSc1ccc(C(=O)[C@@H]2CC[C@H](Cn3nnc4ccc(C(F)(F)F)cc4c3=O)[C@H]2C(=O)O)cc1 (single isomer, unassigned) [Example 90, (−)-(1RS,2SR,5RS)-2-{[4-Oxo-6-(trifluoromethyl)-1,2,3-benzotriazin-3(4H)-yl]methyl}-5-[4-(pentylsulphanyl)benzoyl]cyclopentanecarboxylic acid]
- IC50: 1.1 nM

Further lines, results first:

- IC50: 4.2 nM
SMILES: CCCCCCOc1ccc(C(=O)[C@@H]2CC[C@H](Cn3nnc4ccc(C(F)(F)F)cc4c3=O)[C@H]2C(=O)O)cc1 (single isomer, unassigned) [Example 59, (−)-(1RS,2RS,5SR)-2-[4-(Hexyloxy)benzoyl]-5-{[4-oxo-6-(trifluoromethyl)-1,2,3-benzotriazin-3(4H)-yl]methyl}cyclopentanecarboxylic acid]

- IC50: 0.068 nM
SMILES: CCCCCOc1ccc(C(=O)[C@@H]2CC[C@H](Cn3nnc4ccc(C(F)(F)F)cc4c3=O)[C@H]2C(=O)O)cc1 (single isomer, unassigned) [Example 64, (+)-(1RS,2SR,5RS)-2-{[4-Oxo-6-(trifluoromethyl)-1,2,3-benzotriazin-3(4H)-yl]methyl}-5-[4-(pentyloxy)benzoyl]cyclopentanecarboxylic acid]

- IC50: 1.2 nM
SMILES: CCCCCOc1ccc(C(=O)[C@@H]2CC[C@H](Cn3nnc4ccc(C(F)(F)F)cc4c3=O)[C@H]2C(=O)O)cc1 (single isomer, unassigned) [Example 65, (−)-(1RS,2SR,5RS)-2-{[4-Oxo-6-(trifluoromethyl)-1,2,3-benzotriazin-3(4H)-yl]methyl}-5-[4-(pentyloxy)benzoyl]cyclopentanecarboxylic acid]

- IC50: 0.031 nM
SMILES: CCCOc1ccc(C(=O)[C@@H]2CC[C@H](Cn3nnc4ccc(C(F)(F)F)cc4c3=O)[C@H]2C(=O)O)cc1 (single isomer, unassigned) [Example 70, (+)-(1RS,2SR,5RS)-2-{[4-Oxo-6-(trifluoromethyl)-1,2,3-benzotriazin-3(4H)-yl]methyl}-5-(4-propoxybenzoyl)cyclopentanecarboxylic acid]

- IC50: 2.7 nM
SMILES: CCCOc1ccc(C(=O)[C@@H]2CC[C@H](Cn3nnc4ccc(C(F)(F)F)cc4c3=O)[C@H]2C(=O)O)cc1 (single isomer, unassigned) [Example 71, (−)-(1RS,2SR,5RS)-2-{[4-Oxo-6-(trifluoromethyl)-1,2,3-benzotriazin-3(4H)-yl]methyl}-5-(4-propoxybenzoyl)cyclopentanecarboxylic acid]

- IC50: 160 nM
SMILES: O=C(O)[C@@H]1[C@@H](Cn2nnc3ccc(C(F)(F)F)cc3c2=O)CC[C@H]1C(=O)c1ccc(SCc2ccccc2)cc1 (single isomer, unassigned) [Example 74, (−)-(1RS,2RS,5SR)-2-[4-(Benzylsulphanyl)benzoyl]-5-{[4-oxo-6-(trifluoromethyl)-1,2,3-benzotriazin-3(4H)-yl]methyl}cyclopentanecarboxylic acid]

- IC50: 8.8 nM
SMILES: O=C(O)[C@@H]1[C@@H](Cn2nnc3ccc(C(F)(F)F)cc3c2=O)CC[C@H]1C(=O)c1ccc(SCc2cccc(Cl)c2)cc1 (single isomer, unassigned) [Example 78, (−)-(1RS,2RS,5SR)-2-{4-[(3-Chlorobenzyl)sulphanyl]benzoyl}-5-{[4-oxo-6-(trifluoromethyl)-1,2,3-benzotriazin-3(4H)-yl]methyl}cyclopentanecarboxylic acid]

- IC50: 190 nM
SMILES: Cc1ccc2nnn(C[C@H]3CC[C@@H](C(=O)c4ccc(OCc5ccccc5)cc4)[C@@H]3C(=O)O)c(=O)c2c1 (single isomer, unassigned) [Example 93, (−)-(1RS,2RS,5SR)-2-[4-(Benzyloxy)benzoyl]-5-[(6-methyl-4-oxo-1,2,3-benzotriazin-3(4H)-yl)methyl]cyclopentanecarboxylic acid]

- IC50: 0.025 nM
SMILES: Cc1ccc2nnn(C[C@H]3CC[C@@H](C(=O)c4ccc(OCc5ccc(F)cc5)cc4)[C@@H]3C(=O)O)c(=O)c2c1 (single isomer, unassigned) [Example 95, (+)-(1RS,2RS,5SR)-2-{4-[(4-Fluorobenzyl)oxy]benzoyl}-5-[(6-methyl-4-oxo-1,2,3-benzotriazin-3(4H)-yl)methyl]cyclopentanecarboxylic acid]

- IC50: 120 nM
SMILES: Cc1ccc2nnn(C[C@H]3CC[C@@H](C(=O)c4ccc(OCc5ccc(F)cc5)cc4)[C@@H]3C(=O)O)c(=O)c2c1 (single isomer, unassigned) [Example 96, (−)-(1RS,2RS,5SR)-2-{4-[(4-Fluorobenzyl)oxy]benzoyl}-5-[(6-methyl-4-oxo-1,2,3-benzotriazin-3(4H)-yl)methyl]cyclopentanecarboxylic acid]

- IC50: 210 nM
SMILES: Cc1cccc(COc2ccc(C(=O)[C@@H]3CC[C@H](Cn4nnc5ccc(C)cc5c4=O)[C@H]3C(=O)O)cc2)c1 (single isomer, unassigned) [Example 99, (−)-(1RS,2RS,5SR)-2-{4-[(3-Methylbenzyl)oxy]benzoyl}-5-[(6-methyl-4-oxo-1,2,3-benzotriazin-3(4H)-yl)methyl]cyclopentanecarboxylic acid]

- IC50: 8.7 nM
SMILES: Cc1ccc2nnn(C[C@H]3CC[C@@H](C(=O)c4ccc(OCc5cccc(C(F)(F)F)c5)cc4)[C@@H]3C(=O)O)c(=O)c2c1 (single isomer, unassigned) [Example 102, (−)-(1RS,2SR,5RS)-2-[(6-Methyl-4-oxo-1,2,3-benzotriazin-3(4H)-yl)methyl]-5-(4-{[3-(trifluoromethyl)benzyl]oxy}benzoyl)cyclopentanecarboxylic acid]

- IC50: 14 nM
SMILES: Cc1ccc2nnn(C[C@H]3CC[C@@H](C(=O)c4ccc(OCc5cccc(Cl)c5)cc4)[C@@H]3C(=O)O)c(=O)c2c1 (single isomer, unassigned) [Example 105, (−)-(1RS,2RS,5SR)-2-{4-[(3-Chlorobenzyl)oxy]benzoyl}-5-[(6-methyl-4-oxo-1,2,3-benzotriazin-3(4H)-yl)methyl]cyclopentanecarboxylic acid]

From patent US20170022171A1, “2,5-DISUBSTITUTED CYCLOPENTANECARBOXYLIC ACIDS AND THEIR USE” (Bayer Pharma Aktiengesellschaft, priority 2014, published 2017)
